Results: ChEMBL document CHEMBL5537187, “Discovery of N-(1-(6-Oxo-1,6-dihydropyrimidine)-pyrazole) Acetamide Derivatives as Novel Noncovalent DprE1 Inhibitors against Mycobacterium tuberculosis” (J Med Chem, 2024)
The source made the active and inactive calls. No cut-off for these calls is given here.

Tested on: Mycolicibacterium smegmatis
Assay: Antimycobacterial activity against Mycobacterium smegmatis overexpressing Mtb DprE1 assessed as inhibition of bacterial growth by resazurin dye based analysis
Format: functional, organism-based

In the case of CO[C@H]1/C=C/O[C@@]2(C)Oc3c(C)c(O)c4c(O)c(c(/C=N/N5CCN(C)CC5)c(O)c4c3C2=O)NC(=O)/C(C)=C\C=C\[C@H](C)[C@H](O)[C@@H](C)[C@@H](O)[C@@H](C)[C@H](OC(C)=O)[C@@H]1C [RIFAMPIN], the Activity is reported as “Active”.
